Data published in publication PMC9034004, “Methionine epimerization in cyclic peptides” (RSC Advances, 2021).

Tests used:
MDA-MB-231 cells = assay: CytoTox Green cytotoxicity assay, MDA-MB-231; format: cell-based, Human; settings: 100 μM, 48 h, 8000 cells per well, DMSO 2% as negative control
Description: A Forma Series II 3110 Water-Jacketed CO2 Incubator (Thermo Fisher Scientific) containing T-75 cell culture flasks at 37 °C under a humidified atmosphere was used to culture human breast cancer cell lines MDA-MB-231 and Sk-Br-3. 10% fetal bovine serum (FBS) and 1% penicillin under 5% CO2 were used to supplement McCoy's 5A Modified Medium to culture Sk-Br-3 cell line, and 10% FBS and 1% penicillin under 0% CO2 were used to supplement Leibovitz's L-15 Medium to culture MDA-MB-231 cell line. Each cell line's culture medium was changed every 2–3 days.
MDA-MB-231 and Sk-Br-3 cells were plated in 96-well plates at 8000 cells per well (final culture volume – 300 μL) and allowed to grow overnight for attachment before being treated with LO. LO stock solutions were prepared in DMSO at various concentrations of 200 μM; 100 μM; 50 μM, 25 μM, 12.5 μM. CytoTox Green reagent was added to wells during treatments. DMSO treated cells (final concentration at 2%) were used as a negative control. Following the manufacturer's recommended protocols, LOs cytotoxicity was continuously monitored at 24 h intervals for 120 h and calculated using the equation.Cytotoxicity (%) = [OD (experiment) − OD (vehicle control)]/[OD (maximum cell death) − OD (vehicle control)] × 100%

[1] = Alkaline treatment of LOs (base-catalysed Met epimerization, HPLC); format: physicochemical; settings: LOs 1, 4 and 7 mixture treated with KOH in 70% aqueous ethanol, HPLC at 214 nm and 280 nm
Description: HPLC data was collected at a wavelength range of 190–300 nm using Agilent 1200 series HPLC system equipped with an autosampler, quaternary pump, diode array detector and degasser. Chromatographic separations for Marfey's derivatives were conducted on 100 mm × 4.6 mm i.d., reversed-phase Chromolith® Performance RP-18e columns (Merck KGaA, Darmstadt, Germany). The mobile phase consisted of H2O and 0.05 M triethyl phosphate buffer at a flow rate of 2 mL min^−1 (85 : 15 for 3 min, 85 : 15 to 60 : 40 in 18 min, to 10 : 90 in 0.5 min, 10 : 90 for 1 min, to 85 : 15 in 0.5 min, to equilibration for 2 min) with column compartment at 30 °C. Chromolith® High Resolution RP-18e columns 50 mm × 4.6 mm i.d. (Merck KGaA, Darmstadt, Germany) equipped with in-line filters were used for LO analytical characterization. H2O and CH3CN linear HPLC gradient with a flow rate of 2 mL min^−1 (50 : 50 to 20 : 80 for 1.8 min, 20 : 80 to 10 : 90 in 0.1 min, to 50 : 50 in 0.1 min, to equilibration for 1 min), and a column compartment at 32 °C was used.
LO (1 g) was dissolved in 70% aqueous ethanol (2.5 mL) and KOH (0.25 g) was added. The mixture was sonicated for 30 min. A portion of the mixture (∼1 mL) was transferred to a glass vial and extracted with EtOAc (∼3 mL) then settled. The upper EtOAc phase was transferred by pipette to a clean tube and dried under airflow. […]

| new HPLC peak after KOH treatment (in words) [1] | Substance | % cytotoxicity (MDA-MB-231 cells) [%] |
| --- | --- | --- |
|  | [1−9-NαC]-linusorb B2 [LO 2] | ~40 |
| no extra peak was observed | [1−9-NαC]-linusorb B3 [LO 1] |  |
|  | [1−9-NαC], DMet-linusorb B2 [LO 8] | ~100 |
